In patent EP0584797A2, “Novel cephalosporin compounds and processes for the preparation thereof” (LUCKY LTD., priority 1992, dated 1994):
Values after ≈ are worked out from the molar mass of the structure shown.

Experiments:
Assay in all cases: minimal inhibitory concentration, two-fold agar dilution
Type in all cases: cell-based
[1] = tested on: Acinetobacter calcoaceticus ATCC 15437; details: ATCC15437, Muller-Hinton agar, 37°C, 20 hours, read-out: MIC values against the standard strains
In short: (§1)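 Compounds were serially diluted two-fold into Mueller-Hinton agar, and each plate was spot-inoculated with the test strain at 10⁷ CFU per ml. Plates were incubated at 37°C for 20 hours before MIC values were read.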

[2] = tested on: Bacillus cereus ATCC 11778; details: ATCC11778, Muller-Hinton agar, 37°C, 20 hours, read-out: MIC values against the standard strains
In short: as §1

[3] = tested on: Bacillus megaterium ATCC 9885; details: Priestia megaterium, ATCC9885; Muller-Hinton agar; 37°C; 20 hours; read-out: MIC values against the standard strains
In short: as §1

[4] = tested on: Citrobacter freundii ATCC 8090; details: ATCC8090, Muller-Hinton agar, 37°C, 20 hours, read-out: MIC values against the standard strains
In short: as §1

[5] = tested on: Enterobacter aerogenes ATCC 29751; details: Klebsiella aerogenes, ATCC29751; Muller-Hinton agar; 37°C; 20 hours; read-out: MIC values against the standard strains
In short: as §1

[6] = tested on: Enterobacter cloacae ATCC 27508; details: ATCC27508, Muller-Hinton agar, 37°C, 20 hours, read-out: MIC values against the standard strains
In short: as §1

[7] = tested on: Escherichia coli ATCC 10536; details: ATCC10536, Muller-Hinton agar, 37°C, 20 hours, read-out: MIC values against the standard strains
In short: as §1

[8] = tested on: Escherichia coli ATCC 25922; details: ATCC25922, Muller-Hinton agar, 37°C, 20 hours, read-out: MIC values against the standard strains
In short: as §1

[9] = tested on: Klebsiella pneumoniae ATCC 10031; details: ATCC10031, Muller-Hinton agar, 37°C, 20 hours, read-out: MIC values against the standard strains
In short: as §1

[10] = tested on: Micrococcus luteus ATCC 9341; details: ATCC9341, Muller-Hinton agar, 37°C, 20 hours, read-out: MIC values against the standard strains
In short: as §1

[11] = tested on: Morganella morganii ATCC 8076h; details: ATCC8076H, Muller-Hinton agar, 37°C, 20 hours, read-out: MIC values against the standard strains
In short: as §1

[12] = tested on: Proteus mirabilis ATCC 25933; details: ATCC25933, Muller-Hinton agar, 37°C, 20 hours, read-out: MIC values against the standard strains
In short: as §1

[13] = tested on: Proteus vulgaris ATCC 6059; details: ATCC6059, Muller-Hinton agar, 37°C, 20 hours, read-out: MIC values against the standard strains
In short: as §1

[14] = tested on: Providencia rettgeri ATCC 9250; details: ATCC9250, Muller-Hinton agar, 37°C, 20 hours, read-out: MIC values against the standard strains
In short: as §1

[15] = tested on: Pseudomonas aeruginosa ATCC 10145; details: ATCC10145, Muller-Hinton agar, 37°C, 20 hours, read-out: MIC values against the standard strains
In short: as §1

[16] = tested on: Pseudomonas aeruginosa ATCC 25619; details: ATCC25619, Muller-Hinton agar, 37°C, 20 hours, read-out: MIC values against the standard strains
In short: as §1

[17] = tested on: Pseudomonas aeruginosa ATCC 27853; details: ATCC27853, Muller-Hinton agar, 37°C, 20 hours, read-out: MIC values against the standard strains
In short: as §1

[18] = tested on: Salmonella typhimurium ATCC 14028; details: Salmonella enterica; Muller-Hinton agar; 37°C; 20 hours; read-out: MIC values against the standard strains
In short: as §1

[19] = tested on: Serratia marcescens ATCC 27117; details: ATCC27117, Muller-Hinton agar, 37°C, 20 hours, read-out: MIC values against the standard strains
In short: as §1

[20] = tested on: Shigella flexneri ATCC 11836; details: ATCC11836, Muller-Hinton agar, 37°C, 20 hours, read-out: MIC values against the standard strains
In short: as §1

[21] = tested on: Shigella sonnei ATCC 11060; details: ATCC11060, Muller-Hinton agar, 37°C, 20 hours, read-out: MIC values against the standard strains
In short: as §1

[22] = tested on: Staphylococcus aureus ATCC 10537; details: ATCC10537, Muller-Hinton agar, 37°C, 20 hours, read-out: MIC values against the standard strains
In short: as §1

[23] = tested on: Staphylococcus aureus ATCC 6538p; details: ATCC6538P, Muller-Hinton agar, 37°C, 20 hours, read-out: MIC values against the standard strains
In short: as §1

[24] = tested on: Staphylococcus epidermidis ATCC 12228; details: ATCC12228, Muller-Hinton agar, 37°C, 20 hours, read-out: MIC values against the standard strains
In short: as §1

[25] = tested on: Streptococcus faecalis ATCC 29212; details: Enterococcus faecalis, ATCC29212; Muller-Hinton agar; 37°C; 20 hours; read-out: MIC values against the standard strains
In short: as §1

CCO/N=C(\C(=O)N[C@@H]1C(=O)N2C(C(=O)[O-])=C(CSc3nc(N)cc[n+]3C)CS[C@H]12)c1csc(N)n1 [Example 4, 7-[(Z)-2-(aminothiazol-4-yl)-2-(ethoxyimino)acetamido]-3-(4-amino-1-methylpyrimidinium-2-yl)thiomethyl-3-cephem-4-carboxylate] showed an MIC [1] of 8 µg/mL (≈ 14.5 µM), an MIC [2] of 32 µg/mL (≈ 58.1 µM) and an MIC [3] of 0.13 µg/mL (≈ 0.236 µM). It also gave an MIC [4] of 0.063 µg/mL (≈ 0.114 µM), an MIC [5] of 0.25 µg/mL (≈ 0.454 µM) and an MIC [6] of at most 0.008 µg/mL. For the same compound, the MIC [7] was 0.063 µg/mL (≈ 0.114 µM), the MIC [8] was 0.063 µg/mL (≈ 0.114 µM) and the MIC [9] was at most 0.008 µg/mL. It also gave an MIC [10] of 0.063 µg/mL (≈ 0.114 µM), an MIC [11] of at most 0.008 µg/mL and an MIC [12] of 0.5 µg/mL (≈ 0.908 µM). It also gave an MIC [13] of 0.5 µg/mL (≈ 0.908 µM), an MIC [14] of at most 0.008 µg/mL and an MIC [15] of 16 µg/mL (≈ 29.1 µM). For the same compound, the MIC [16] was 1 µg/mL (≈ 1.82 µM), the MIC [17] was 8 µg/mL (≈ 14.5 µM) and the MIC [18] was 0.25 µg/mL (≈ 0.454 µM). The MIC [19] was 0.25 µg/mL (≈ 0.454 µM), the MIC [20] was 0.031 µg/mL (≈ 0.0563 µM) and the MIC [21] was 0.25 µg/mL (≈ 0.454 µM). The MIC [22] was 0.25 µg/mL (≈ 0.454 µM), the MIC [23] was 0.5 µg/mL (≈ 0.908 µM) and the MIC [24] was 0.13 µg/mL (≈ 0.236 µM). For the same compound, the MIC [25] was 64 µg/mL (≈ 116 µM).

C[n+]1ccc(N)nc1SCC1=C(C(=O)[O-])N2C(=O)[C@@H](NC(=O)/C(=N\OC(C)(C)C(=O)O)c3csc(N)n3)[C@H]2SC1 [Example 2, 7-[(Z)-2-(aminothiazol-4-yl)-2-(carboxyprop-2-oxyimino)acetamido]-3-(4-amino-1-methylpyrimidinium-2-yl)thiomethyl-3-cephem-4-carboxylate] showed an MIC [1] of 4 µg/mL (≈ 6.57 µM), an MIC [2] of 64 µg/mL (≈ 105 µM) and an MIC [3] of 0.25 µg/mL (≈ 0.411 µM). It also gave an MIC [4] of 0.031 µg/mL (≈ 0.0509 µM), an MIC [5] of 1 µg/mL (≈ 1.64 µM) and an MIC [6] of at most 0.008 µg/mL. For the same compound, the MIC [7] was 0.031 µg/mL (≈ 0.0509 µM), the MIC [8] was 0.031 µg/mL (≈ 0.0509 µM) and the MIC [9] was 0.031 µg/mL (≈ 0.0509 µM). For the same compound, the MIC [10] was 0.25 µg/mL (≈ 0.411 µM), the MIC [11] was at most 0.008 µg/mL and the MIC [12] was 0.031 µg/mL (≈ 0.0509 µM). The MIC [13] was 0.063 µg/mL (≈ 0.104 µM), the MIC [14] was at most 0.008 µg/mL and the MIC [15] was 2 µg/mL (≈ 3.29 µM). The MIC [16] was 1 µg/mL (≈ 1.64 µM), the MIC [17] was 1 µg/mL (≈ 1.64 µM) and the MIC [18] was 0.13 µg/mL (≈ 0.214 µM). For the same compound, the MIC [19] was 0.063 µg/mL (≈ 0.104 µM), the MIC [20] was 0.016 µg/mL (≈ 0.0263 µM) and the MIC [21] was 0.063 µg/mL (≈ 0.104 µM). It also gave an MIC [22] of 2 µg/mL (≈ 3.29 µM), an MIC [23] of 4 µg/mL (≈ 6.57 µM) and an MIC [24] of 2 µg/mL (≈ 3.29 µM). For the same compound, the MIC [25] was over 128 µg/mL.
